{
  "source": "patent US20210283087A1",
  "about": "“METHOD FOR TREATING AND RELIEVING MYOPIA” (China Medical University, priority 2014, published 2021)",
  "key": {"[1]": {"system": "primary sclera fibroblast", "assay": "Immunofluorescence of MMP2 and COL1 in primary scleral fibroblasts", "assay_type": "cell-based, rat", "settings": "100 μM atropine for 24 hours", "procedure": "Primary sclera fibroblast cells plating on cover slides were washed with Tris-buffered saline (TBS), and subsequently fixed with 4% paraformaldehyde and washed twice with TBS before blocking with 1% BSA and 0.1% Triton X-100 for 1 hour. The cells were incubated with anti-MMP2 or anti-COL1 for 1 hour before being washed three times with TBS and subsequently incubated with an appropriate secondary antibody and a 4′,6-diamidino-2-phenylindole (DAPI) DNA stain. After being washed three times with TBS, the cells were imaged using fluorescence microscopy. All experiments were performed at least in triplicate."}, "Sclera fibroblast": {"system": "Sclera fibroblast", "assay": "Gene expression by real-time PCR in LPS-treated primary scleral fibroblasts", "assay_type": "cell-based, hamster", "procedure": "(§1) R28 rat retinal epithelial cells were provided by Gail Seigel at the Ross Eye Institute (SUNY, Buffalo, N.Y., USA). The cells were cultured in Dulbecco's modified Eagle's medium (DMEM) with 10% fetal bovine serum (FBS) at 37° C. and 5% CO2, with medium replacement every 3 days to 4 days. Sclera were placed in a 60-mm culture dish in DMEM supplemented with 10% FBS to isolate primary scleral fibroblasts; those from fewer than three passages were used in experiments. […] Cell lysates were collected for quantitative (q)PCR to determine gene expression levels.\n(§2) Total RNA was extracted using the RNeasy MiniKit (Qiagen, Valencia, Calif., USA), and 5 μg of RNA was reverse-transcribed to cDNA by using the Superscript First Strand Synthesis system (Invitrogen, Carlsbad, Calif., USA). Primers and probes used for qPCR were selected from the Universal Probes Library (Roche, West Sussex, UK). Transcript levels were normalized to those of glyceraldehyde 3-phosphate dehydrogenase in each sample."}, "[2]": {"system": "sclera and retina of hamster eyes", "assay": "Immunohistochemistry of hamster eyes (sclera, retina)", "assay_type": "in vivo", "procedure": "Antigen retrieval was performed by boiling the slides in citrate buffer (pH 6.0); the sections were then stained with antibodies against IL-6, TNF-α, TGF-β, MMP2, c-Fos, NF-κB, and CHRM1 and 3. The EnVision System peroxidase kit (DAKO, Carpentaria, Calif., USA) was used to visualize immunoreactivity."}, "MMP2": {"system": "MMP2", "assay": "Gelatin zymography of MMP2 activity in LPS-activated scleral fibroblasts and ARPE-19 cells", "assay_type": "cell-based", "settings": "LPS + 100 μM atropine or LPS + 50 μM diacerein; 48 hours", "procedure": "To facilitate subsequent analysis, 1×10^6 cells were seeded in 24-well plates for at least 12 hours. […] To measure the MMP-2/MMP-9 activities, samples were separated using 8% SDS-PAGE containing 0.1% gelatin."}, "guinea pig with MFD": {"system": "guinea pig with MFD", "assay": "Refractive power and axial length in guinea pig MFD model", "assay_type": "in vivo, albino guinea pigs", "settings": "MFD + 1% atropine; Day 21", "procedure": "In this study, a total of 160 golden Syrian hamsters aged 3 weeks, weighing 80 to 90 g, and 20 albino guinea pigs, aged 2 to 3 weeks, were used for experiments. All animals were kept in a 12-hour light/dark cycle. All procedures were approved by the Institutional Animal Care and Use Committee of China Medical University and were conducted in accordance with the guidelines of the Use of Animals in Ophthalmic and Vision Research. Hamsters were raised with a right eyelid fusion for 21 days. Myopia was induced in the guinea pigs by covering the right eye with a cloth attached to the skin at a distance of at least 1 cm from the eye. MFD was induced in the right eye (with the left eye serving as a control) of animals randomly assigned to treatment or control groups (n=10 animals each) receiving daily applications of drug or phosphate-buffered saline (PBS), respectively, to both eyes.\nThe RE (i.e., spherical-component RE, which is defined as the mean RE in horizontal and vertical meridians) was measured using a hand-held streak retinoscope. Animals were anesthetized with 10% ether in O2. Ocular refraction was evaluated at the start and end of the experiment. […] The axial lengths were determined through A-scan ultrasonography (PacScan 300 Plus, NY, USA). […]"}, "Retinal cell (R28)": {"system": "Retinal cell (R28)", "assay": "Gene expression by real-time PCR in LPS-treated R28 retinal cells", "assay_type": "cell-based, rat", "procedure": "as §1, §2"}, "[3]": {"system": "ARPE-19 human retinal pigment epithelial cells", "assay": "Western blot of LPS-induced signaling in ARPE-19 cells (atropine)", "assay_type": "cell-based", "settings": "LPS + 100 μM atropine", "procedure": "ARPE-19 human retinal pigment epithelial cells were obtained from the Bioresource Collection and Research Center, HsinChu, Taiwan (BCRC; BCRC-60383). Cells were cultured in DMEM with 10% FBS at 37° C. and 5% CO2, with medium replacement every 3 to 4 days. […] After treatment, 30 μg of total cell lysates was subjected to sodium dodecyl sulfate polyacrylamide gel electrophoresis (SDS-PAGE), followed by immunoblot analysis. Primary antibodies used included ERK (Thr202/Tyr204), AKT (Ser473), PI3K (p85[Tyr458]/p55[Tyr199]), NF-κB (p65, Ser536), and c-Fos (Ser32; Cell Signaling, Beverly, Mass., USA). Antirabbit or antimouse secondary antibody conjugated with horseradish peroxidase was also used. Immunoreactive protein bands were detected using an enhanced chemiluminescence kit (ECL, Pierce, Thermo Fisher Scientific, Pittsburgh, Pa., USA). Equal loading was confirmed through probing the blots with β-actin antibody (Abcam, Cambridge, Mass., USA) as well as anti-ERK, AKT, PI3K, NF-κB, and c-Fos."}, "[4]": {"settings": "sclera fibroblast, 100 ng/ml LPS and 100 μM atropine for 4 hours"}, "[5]": {"settings": "R28, 100 ng/ml LPS and 100 μM atropine for 4 hours"}},
  "data": [
    {"compound": "CN1[C@@H]2CC[C@H]1C[C@@H](OC(=O)C(CO)c1ccccc1)C2", "note": "(stereo partly shown) [Atropine, atropine]", "values": [
      {"measurement": "COL1 expression", "setting": "[1]", "result": "increased"},
      {"measurement": "Expression levels of MMP2", "setting": "[1]", "result": "inhibited"},
      {"measurement": "Chrm5 gene expression level", "setting": "Sclera fibroblast", "result": "0.98 ± 0.12"},
      {"measurement": "Chrm 1 gene expression level", "setting": "Sclera fibroblast; [4]", "result": "0.73 ± 0.11"},
      {"measurement": "Chrm 2 gene expression level", "setting": "Sclera fibroblast; [4]", "result": "1.24 ± 0.14"},
      {"measurement": "Chrm 3 gene expression level", "setting": "Sclera fibroblast; [4]", "result": "0.70 ± 0.23"},
      {"measurement": "Chrm 4 gene expression level", "setting": "Sclera fibroblast; [4]", "result": "1.11 ± 0.17"},
      {"measurement": "Fos gene expression level", "setting": "Sclera fibroblast; [4]", "result": "0.93 ± 0.17"},
      {"measurement": "IL1b gene expression level", "setting": "Sclera fibroblast; [4]", "result": "0.75 ± 0.13"},
      {"measurement": "IL10 gene expression level", "setting": "Sclera fibroblast; [4]", "result": "1.05 ± 0.21"},
      {"measurement": "IL-6 gene expression level", "setting": "Sclera fibroblast; [4]", "result": "0.79 ± 0.18"},
      {"measurement": "MMP2 gene expression level", "setting": "Sclera fibroblast; [4]", "result": "0.74 ± 0.19"},
      {"measurement": "NFkB gene expression level", "setting": "Sclera fibroblast; [4]", "result": "0.36 ± 0.3"},
      {"measurement": "Tgfb1 gene expression level", "setting": "Sclera fibroblast; [4]", "result": "0.48 ± 0.24"},
      {"measurement": "Tnfa gene expression level", "setting": "Sclera fibroblast; [4]", "result": "0.80 ± 0.2"},
      {"measurement": "IL-6 and TNF-α immunoreactivity in the retina of MFD eyes", "setting": "[2]; 1% atropine", "result": "reduced"},
      {"measurement": "c-Fos and NF-κB expression in the retinas of MFD eyes", "setting": "[2]; 1% atropine", "result": "suppressed"},
      {"measurement": "COL1 expression in the sclera of the MFD eye", "setting": "[2]; 1% atropine compared with PBS", "result": "increased"},
      {"measurement": "MMP2 expression in the sclera of the MFD eye", "setting": "[2]; 1% atropine compared with PBS", "result": "decreased"},
      {"measurement": "MFD upregulation of TGF-β level in retina and sclera", "setting": "[2]; atropine", "result": "suppressed"},
      {"measurement": "IL-10 expression", "setting": "[2]; atropine treatment", "result": "elevated"},
      {"measurement": "CHRM1 and CHRM 3 expression in MFD eyes", "setting": "[2]; atropine treatment compared with PBS-treated MFD eyes", "result": "downregulated"},
      {"measurement": "MMP2 activities in cells activated by LPS", "setting": "MMP2", "result": "decreased"},
      {"measurement": "Refractive power, left eye (control eye)", "setting": "guinea pig with MFD", "result": "−1.50±0.82", "unit": "D"},
      {"measurement": "Refractive power, right eye (myopic eye)", "setting": "guinea pig with MFD", "result": "−6.79±1.00", "unit": "D"},
      {"measurement": "Chrm5 gene expression level", "setting": "Retinal cell (R28)", "result": "0.78 ± 0.24"},
      {"measurement": "Chrm 1 gene expression level", "setting": "Retinal cell (R28); [5]", "result": "0.65 ± 0.16"},
      {"measurement": "Chrm 2 gene expression level", "setting": "Retinal cell (R28); [5]", "result": "1.96 ± 0.2"},
      {"measurement": "Chrm 3 gene expression level", "setting": "Retinal cell (R28); [5]", "result": "0.78 ± 0.11"},
      {"measurement": "Chrm 4 gene expression level", "setting": "Retinal cell (R28); [5]", "result": "0.81 ± 0.23"},
      {"measurement": "Fos gene expression level", "setting": "Retinal cell (R28); [5]", "result": "0.76 ± 0.17"},
      {"measurement": "IL1b gene expression level", "setting": "Retinal cell (R28); [5]", "result": "0.17 ± 0.24"},
      {"measurement": "IL10 gene expression level", "setting": "Retinal cell (R28); [5]", "result": "1.81 ± 0.15"},
      {"measurement": "IL-6 gene expression level", "setting": "Retinal cell (R28); [5]", "result": "0.86 ± 0.19"},
      {"measurement": "MMP2 gene expression level", "setting": "Retinal cell (R28); [5]", "result": "0.75 ± 0.16"},
      {"measurement": "NFkB gene expression level", "setting": "Retinal cell (R28); [5]", "result": "0.85 ± 0.08"},
      {"measurement": "Tgfb1 gene expression level", "setting": "Retinal cell (R28); [5]", "result": "0.82 ± 0.11"},
      {"measurement": "Tnfa gene expression level", "setting": "Retinal cell (R28); [5]", "result": "0.84 ± 0.24"},
      {"measurement": "Activation of ERK through LPS and downstream c-FOS", "setting": "[3]", "result": "inhibited"},
      {"measurement": "LPS activation of PI3K, AKT, and NF-κB", "setting": "[3]", "result": "inhibited"}
    ]}
  ]
}
